Measurements from US9346799B2, “Useful combinations of monobactam antibiotics with beta-lactamase inhibitors” (Basilea Pharmaceutica AG, priority 2005, dated 2016).

Tests used:
Test in all cases: MIC by broth microdilution (NCCLS M7-A5)
[1] = tested on: Stenotrophomonas malthophilia 1AC736; conditions: Stenotrophomonas maltophilia 1AC736
[2] = tested on: Acinetobacter sp. J2
[3] = tested on: Pseudomonas aeruginosa 1973E
[4] = tested on: Enterobacter aerogenes Zayakosky; conditions: E. aerogenes Zayakosky
[5] = tested on: Enterobacter cloacae P99
[6] = tested on: Enterobacter cloacae B1102; conditions: E. cloacae B1102
[7] = tested on: Enterobacter aerogenes B1; conditions: E. aerogenes B1
[8] = tested on: Enterobacter cloacae M4018; conditions: E. cloacae M4018
[9] = tested on: Klebsiella pneumoniae CF104
[10] = tested on: Enterobacter cloacae ATCC13047/CRO-R; conditions: E. cloacae ATCC13047/CRO-R
[11] = tested on: Serratia marcescens S6
[12] = tested on: Enterobacter cloacae MRW; conditions: E. cloacae MRW
[13] = tested on: Pseudomonas aeruginosa MK1184
[14] = + 102 + clavulanate, 4 mg/L each
[15] = + 103 + clavulanate, 4 mg/L each
[16] = + 111 + clavulanate, 4 mg/L each
[17] = + 202 + clavulanate, 4 mg/L each
[18] = + 206 + clavulanate, 4 mg/L each
[19] = + 323 + clavulanate, 4 mg/L each
[20] = + 324 + clavulanate, 4 mg/L each
[21] = + compound 323 and clavulanate, 4 mg/L each

## CC1C(NC(=O)C(=NOCc2cc(=O)c(O)cn2O)c2csc(N)n2)C(=O)N1S(=O)(=O)O (centres unmarked) [Compound 1]
[1]; [14]
  MIC of antibiotic: 0.125 µg/mL
[1]; + 102 + sulbactam, 4 mg/L each
  MIC of antibiotic: 2 µg/mL
[1]; [15]
  MIC of antibiotic: 0.125 µg/mL
[1]; [16]
  MIC of antibiotic: 0.125 µg/mL
[1]; [17]
  MIC of antibiotic: 0.125 µg/mL
[1]; [18]
  MIC of antibiotic: 0.125 µg/mL
[1]; [19]
  MIC of antibiotic: 0.125 µg/mL
[1]; + 323 + sulbactam, 4 mg/L each
  MIC of antibiotic: 0.125 µg/mL
[1]; [20]
  MIC of antibiotic: 0.125 µg/mL
[1]; + 501 4 mg/L
  MIC of antibiotic: 0.25 µg/mL
[1]; + clavulanate 4 mg/L
  MIC of antibiotic: 0.5 µg/mL
[1]; antibiotic alone
  MIC of antibiotic: 1 µg/mL
[2]; Acinetobacter baumannii J2, + 102 + clavulanate, 4 mg/L each
  MIC of antibiotic: 4 µg/mL
[2]; Acinetobacter baumannii J2, + 102 + sulbactam, 4 mg/L each
  MIC of antibiotic: 2 µg/mL
[2]; Acinetobacter baumannii J2, + 103 + clavulanate, 4 mg/L each
  MIC of antibiotic: 8 µg/mL
[2]; Acinetobacter baumannii J2, + 111 + clavulanate, 4 mg/L each
  MIC of antibiotic: 4 µg/mL
[2]; Acinetobacter baumannii J2, + 202 + clavulanate, 4 mg/L each
  MIC of antibiotic: 4 µg/mL
[2]; Acinetobacter baumannii J2, + 206 + clavulanate, 4 mg/L each
  MIC of antibiotic: 4 µg/mL
[2]; Acinetobacter baumannii J2, + 323 + clavulanate, 4 mg/L each
  MIC of antibiotic: 16 µg/mL
[2]; Acinetobacter baumannii J2, + 323 + sulbactam, 4 mg/L each
  MIC of antibiotic: 1 µg/mL
[2]; Acinetobacter baumannii J2, + 324 + clavulanate, 4 mg/L each
  MIC of antibiotic: 32 µg/mL
[2]; Acinetobacter baumannii J2, + 501 4 mg/L
  MIC of antibiotic: <0.06 µg/mL
[2]; Acinetobacter baumannii J2, + clavulanate 4 mg/L
  MIC of antibiotic: >32 µg/mL
[2]; Acinetobacter baumannii J2, antibiotic alone
  MIC of antibiotic: >32 µg/mL
[2]; Acinetobacter sp. J2, antibiotic alone, no inhibitor
  MIC of antibiotic: >22 µg/mL
[3]; [14]
  MIC of antibiotic: 2 µg/mL
[3]; + 102 + sulbactam, 4 mg/L each
  MIC of antibiotic: 4 µg/mL
[3]; [15]
  MIC of antibiotic: 4 µg/mL
[3]; [16]
  MIC of antibiotic: 4 µg/mL
[3]; [17]
  MIC of antibiotic: 4 µg/mL
[3]; [18]
  MIC of antibiotic: 4 µg/mL
[3]; [19]
  MIC of antibiotic: 8 µg/mL
[3]; + 323 + sulbactam, 4 mg/L each
  MIC of antibiotic: 4 µg/mL
[3]; [20]
  MIC of antibiotic: 8 µg/mL
[3]; + 501 4 mg/L
  MIC of antibiotic: 8 µg/mL
[3]; + clavulanate 4 mg/L
  MIC of antibiotic: 8 µg/mL
[3]; antibiotic alone
  MIC of antibiotic: 16 µg/mL
[4]; + clavulanate at fixed 4 mg/L
  Minimal Inhibitory Concentration of antibiotic: >32 mg/L
[4]; + compound 206 at fixed 4 mg/L
  Minimal Inhibitory Concentration of antibiotic: >32 mg/L
[4]; [21]
  Minimal Inhibitory Concentration of antibiotic: 16 mg/L
[4]; + compound 501 at fixed 4 mg/L
  Minimal Inhibitory Concentration of antibiotic: >32 mg/L
[4]; antibiotic alone
  Minimal Inhibitory Concentration of antibiotic: >32 mg/L
[5]; [14]
  MIC of antibiotic: 4 µg/mL
[5]; + 102 + sulbactam, 4 mg/L each
  MIC of antibiotic: 8 µg/mL
[5]; [15]
  MIC of antibiotic: 32 µg/mL
[5]; [16]
  MIC of antibiotic: 4 µg/mL
[5]; [17]
  MIC of antibiotic: 16 µg/mL
[5]; [18]
  MIC of antibiotic: 8 µg/mL
[5]; [19]
  MIC of antibiotic: 4 µg/mL
[5]; + 323 + sulbactam, 4 mg/L each
  MIC of antibiotic: 4 µg/mL
[5]; [20]
  MIC of antibiotic: 4 µg/mL
[5]; + 501 4 mg/L
  MIC of antibiotic: 16 µg/mL
[5]; + clavulanate 4 mg/L
  MIC of antibiotic: 32 µg/mL
[5]; antibiotic alone
  MIC of antibiotic: >32 µg/mL
[6]; + clavulanate at fixed 4 mg/L
  Minimal Inhibitory Concentration of antibiotic: 32 mg/L
[6]; + compound 206 at fixed 4 mg/L
  Minimal Inhibitory Concentration of antibiotic: 16 mg/L
[6]; [21]
  Minimal Inhibitory Concentration of antibiotic: 8 mg/L
[6]; + compound 501 at fixed 4 mg/L
  Minimal Inhibitory Concentration of antibiotic: 16 mg/L
[6]; antibiotic alone
  Minimal Inhibitory Concentration of antibiotic: >32 mg/L
[7]; + clavulanate at fixed 4 mg/L
  Minimal Inhibitory Concentration of antibiotic: >32 mg/L
[7]; + compound 206 at fixed 4 mg/L
  Minimal Inhibitory Concentration of antibiotic: 16 mg/L
[7]; [21]
  Minimal Inhibitory Concentration of antibiotic: 4 mg/L
[7]; + compound 501 at fixed 4 mg/L
  Minimal Inhibitory Concentration of antibiotic: >32 mg/L
[7]; antibiotic alone
  Minimal Inhibitory Concentration of antibiotic: 32 mg/L
[8]; + clavulanate at fixed 4 mg/L
  Minimal Inhibitory Concentration of antibiotic: >32 mg/L
[8]; + compound 206 at fixed 4 mg/L
  Minimal Inhibitory Concentration of antibiotic: 8 mg/L
[8]; [21]
  Minimal Inhibitory Concentration of antibiotic: 2 mg/L
[8]; + compound 501 at fixed 4 mg/L
  Minimal Inhibitory Concentration of antibiotic: 16 mg/L
[8]; antibiotic alone
  Minimal Inhibitory Concentration of antibiotic: 32 mg/L
[9]; [14]
  MIC of antibiotic: 1 µg/mL
[9]; + 102 + sulbactam, 4 mg/L each
  MIC of antibiotic: 1 µg/mL
[9]; [15]
  MIC of antibiotic: 0.5 µg/mL
[9]; [16]
  MIC of antibiotic: <0.06 µg/mL
[9]; [17]
  MIC of antibiotic: 2 µg/mL
[9]; [18]
  MIC of antibiotic: 0.25 µg/mL
[9]; [19]
  MIC of antibiotic: 2 µg/mL
[9]; + 323 + sulbactam, 4 mg/L each
  MIC of antibiotic: 1 µg/mL
[9]; [20]
  MIC of antibiotic: 1 µg/mL
[9]; + 501 4 mg/L
  MIC of antibiotic: 0.5 µg/mL
[9]; + clavulanate 4 mg/L
  MIC of antibiotic: 0.5 µg/mL
[9]; antibiotic alone
  MIC of antibiotic: >32 µg/mL
[10]; + clavulanate at fixed 4 mg/L
  Minimal Inhibitory Concentration of antibiotic: >32 mg/L
[10]; + compound 206 at fixed 4 mg/L
  Minimal Inhibitory Concentration of antibiotic: >32 mg/L
[10]; [21]
  Minimal Inhibitory Concentration of antibiotic: 8 mg/L
[10]; + compound 501 at fixed 4 mg/L
  Minimal Inhibitory Concentration of antibiotic: >32 mg/L
[10]; antibiotic alone
  Minimal Inhibitory Concentration of antibiotic: >32 mg/L
[11]; [14]
  MIC of antibiotic: 0.25 µg/mL
[11]; + 102 + sulbactam, 4 mg/L each
  MIC of antibiotic: 0.5 µg/mL
[11]; [15]
  MIC of antibiotic: 0.25 µg/mL
[11]; [16]
  MIC of antibiotic: 0.25 µg/mL
[11]; [17]
  MIC of antibiotic: 0.5 µg/mL
[11]; [18]
  MIC of antibiotic: 4 µg/mL
[11]; [19]
  MIC of antibiotic: 0.25 µg/mL
[11]; + 323 + sulbactam, 4 mg/L each
  MIC of antibiotic: 0.5 µg/mL
[11]; [20]
  MIC of antibiotic: 1 µg/mL
[11]; + 501 4 mg/L
  MIC of antibiotic: 4 µg/mL
[11]; + clavulanate 4 mg/L
  MIC of antibiotic: 4 µg/mL
[11]; antibiotic alone
  MIC of antibiotic: >32 µg/mL
[11]; antibiotic alone, no inhibitor
  MIC of antibiotic: 1 µg/mL
[12]; + clavulanate at fixed 4 mg/L
  Minimal Inhibitory Concentration of antibiotic: 32 mg/L
[12]; + compound 206 at fixed 4 mg/L
  Minimal Inhibitory Concentration of antibiotic: 16 mg/L
[12]; [21]
  Minimal Inhibitory Concentration of antibiotic: 4 mg/L
[12]; + compound 501 at fixed 4 mg/L
  Minimal Inhibitory Concentration of antibiotic: 32 mg/L
[12]; antibiotic alone
  Minimal Inhibitory Concentration of antibiotic: >32 mg/L
[13]; [14]
  MIC of antibiotic: 4 µg/mL
[13]; + 102 + sulbactam, 4 mg/L each
  MIC of antibiotic: 32 µg/mL
[13]; [15]
  MIC of antibiotic: 8 µg/mL
[13]; [16]
  MIC of antibiotic: 8 µg/mL
[13]; [17]
  MIC of antibiotic: 8 µg/mL
[13]; [18]
  MIC of antibiotic: >32 µg/mL
[13]; [19]
  MIC of antibiotic: 16 µg/mL
[13]; + 323 + sulbactam, 4 mg/L each
  MIC of antibiotic: 4 µg/mL
[13]; [20]
  MIC of antibiotic: 8 µg/mL
[13]; + 501 4 mg/L
  MIC of antibiotic: >32 µg/mL
[13]; + clavulanate 4 mg/L
  MIC of antibiotic: >32 µg/mL
[13]; antibiotic alone
  MIC of antibiotic: >32 µg/mL
